# Experimental data as given in patent publication US12187706B2, “NLRP3 modulators” (INNATE TUMOR IMMUNITY, INC., priority 2019, dated 2025).
# Molecular target: T1, NLRP3 (Homo sapiens, UniProt Q96P20)
# T1 construct: host or cells: PMA-differentiated THP-1 cells
# Assay: Measurement of IL-1β production in PMA-differentiated THP-1 cells (NLRP3 hIL1B)
# Assay type: cell-based
# How it was run: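 THP-1 cells differentiated with PMA, then replated in RPMI with 2% FBS and exposed to compound for 4 h (alternative: 2 h; hTRF protocol: 2 h at 37 °C, top concentration 10 μM). Supernatant IL-1β was quantified by ELISA or HTRF. Final DMSO 1%, with vehicle control.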
# T1 sequence (Q96P20 whole entry): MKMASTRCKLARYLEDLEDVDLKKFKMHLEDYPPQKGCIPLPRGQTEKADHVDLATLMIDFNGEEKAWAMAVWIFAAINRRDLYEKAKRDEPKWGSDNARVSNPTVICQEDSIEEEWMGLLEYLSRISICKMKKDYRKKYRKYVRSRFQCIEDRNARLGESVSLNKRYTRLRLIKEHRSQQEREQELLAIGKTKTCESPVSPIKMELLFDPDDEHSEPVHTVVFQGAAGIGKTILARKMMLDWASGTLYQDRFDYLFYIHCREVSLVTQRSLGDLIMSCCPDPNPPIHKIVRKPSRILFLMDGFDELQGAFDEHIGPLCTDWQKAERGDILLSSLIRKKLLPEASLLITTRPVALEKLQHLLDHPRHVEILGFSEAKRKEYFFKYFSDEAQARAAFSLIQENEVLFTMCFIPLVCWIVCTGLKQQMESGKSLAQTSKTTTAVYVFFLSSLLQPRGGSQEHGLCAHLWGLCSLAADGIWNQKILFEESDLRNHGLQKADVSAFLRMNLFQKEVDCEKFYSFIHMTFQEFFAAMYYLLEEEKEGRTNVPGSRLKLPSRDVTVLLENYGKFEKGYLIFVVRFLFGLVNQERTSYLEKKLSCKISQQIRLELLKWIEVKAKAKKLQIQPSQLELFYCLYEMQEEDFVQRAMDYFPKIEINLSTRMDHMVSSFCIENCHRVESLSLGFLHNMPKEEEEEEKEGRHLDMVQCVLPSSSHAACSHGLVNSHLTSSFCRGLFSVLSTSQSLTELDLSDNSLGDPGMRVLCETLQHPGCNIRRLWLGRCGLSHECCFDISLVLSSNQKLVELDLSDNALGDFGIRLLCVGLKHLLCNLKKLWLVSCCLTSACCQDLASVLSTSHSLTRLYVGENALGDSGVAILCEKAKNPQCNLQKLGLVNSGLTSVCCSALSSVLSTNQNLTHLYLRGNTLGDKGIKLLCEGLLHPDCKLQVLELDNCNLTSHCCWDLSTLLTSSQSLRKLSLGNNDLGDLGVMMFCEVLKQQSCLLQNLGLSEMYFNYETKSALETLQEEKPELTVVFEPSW
smiles,measurement,value
"Nc1nc(OCCO)c2ccc(-c3ccn[nH]3)cc2n1 [Example 4, 2-((2-amino-7-(1H-pyrazol-3-yl)quinazolin-4-yl)oxy)ethan-1-ol]",EC50,6.54 µM
